target: Short transient receptor potential channel 6 (Mus musculus) (UniProt Q61143); assay: TRPC6 inhibitor potency, dose response, cell-based, mouse TRPC6, HEK293, membrane potential (AID 2696); conditions: TRPC6-expressing HEK293 cells, membrane potential dye fluorescence, acetylcholine-stimulated
Sequence (Q61143 whole entry, looked up): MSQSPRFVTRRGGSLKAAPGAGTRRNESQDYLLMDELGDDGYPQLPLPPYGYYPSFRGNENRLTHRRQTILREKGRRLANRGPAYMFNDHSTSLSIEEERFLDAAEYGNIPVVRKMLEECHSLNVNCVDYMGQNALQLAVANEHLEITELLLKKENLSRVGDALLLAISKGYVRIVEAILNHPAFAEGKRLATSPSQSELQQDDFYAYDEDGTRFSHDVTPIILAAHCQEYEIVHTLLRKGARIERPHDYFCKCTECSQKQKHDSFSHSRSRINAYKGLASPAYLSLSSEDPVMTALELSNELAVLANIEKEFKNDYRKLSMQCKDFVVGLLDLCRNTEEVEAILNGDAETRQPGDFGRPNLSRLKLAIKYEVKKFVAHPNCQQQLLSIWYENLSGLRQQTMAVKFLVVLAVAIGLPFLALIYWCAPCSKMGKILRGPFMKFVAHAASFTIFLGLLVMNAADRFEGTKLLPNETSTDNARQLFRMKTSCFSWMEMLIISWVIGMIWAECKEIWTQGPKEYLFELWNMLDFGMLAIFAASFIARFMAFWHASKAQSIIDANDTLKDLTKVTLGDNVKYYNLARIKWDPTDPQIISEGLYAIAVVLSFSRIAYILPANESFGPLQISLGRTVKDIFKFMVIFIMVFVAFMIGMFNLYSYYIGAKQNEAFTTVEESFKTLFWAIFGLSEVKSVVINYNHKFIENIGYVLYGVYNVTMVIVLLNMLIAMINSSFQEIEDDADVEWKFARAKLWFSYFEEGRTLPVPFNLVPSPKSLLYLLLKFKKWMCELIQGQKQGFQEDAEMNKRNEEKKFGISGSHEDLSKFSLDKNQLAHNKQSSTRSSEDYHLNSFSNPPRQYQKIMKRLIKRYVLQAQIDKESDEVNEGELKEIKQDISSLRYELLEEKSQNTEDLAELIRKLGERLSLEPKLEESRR

Point of comparison: `CN(C)CCNS(=O)(=O)c1ccc(N2CCN(c3ccc(F)cc3)CC2)c([N+](=O)[O-])c1`, IC50 56.2 µM. Against it:
- COc1ccc2ccccc2c1CNC(C)CCc1ccccc1 (stereo not drawn) — 3.6-fold lower, 15.8 µM
- O=C(NNS(=O)(=O)c1ccc2ccccc2c1)C1CCN(Cc2ccccc2)CC1 — 40-fold lower, 1.41 µM
- Cn1c(=O)c(C#N)c(-c2ccc(F)cc2)c2cc(C(=O)c3cc(Cl)cc(Cl)c3O)cnc21 — within 1.5-fold, 44.7 µM
- COC(=O)c1ccc(NC2(C#N)C(=O)Nc3ccccc32)cc1 (stereo not drawn) — within 1.5-fold, 50.1 µM
- CN(C)CCOC(=O)C1(c2ccccc2)CCCC1 — within 1.5-fold, 44.7 µM
- C[N+](C)(C)CCOC(=O)C1(c2ccccc2)CCCC1 — 6.3-fold lower, 8.91 µM
- CC1=NN(c2ccccc2)C(=O)/C1=C/C=C/c1ccc(N(C)C)cc1 — within 1.5-fold, 44.7 µM
- Clc1ccc2c(N3CCCC3)ccnc2c1 — the same, 56.2 µM
- CC[N+](C)(C)CC/C=C1/c2ccccc2Sc2ccc(Cl)cc21 — 36-fold lower, 1.58 µM
- CCN(c1ccccc1)S(=O)(=O)c1cccc(C(=O)N2CCN(S(=O)(=O)c3ccccc3)CC2)c1 — within 1.5-fold, 63.1 µM
- CC1CCCN1CC#CC(O)(c1ccccc1)c1ccccc1 (stereo not drawn) — 5-fold lower, 11.2 µM
- CN1CCN(CCC(C#N)(c2ccccc2)c2ccccc2)CC1 — within 1.5-fold, 39.8 µM
- CCCn1c(=N)c(C(=O)NC2CCCC2)cc2c(=O)n3cccc(C)c3nc21 — within 1.5-fold, 44.7 µM
- CCN(CC)CCOC(=O)C1c2ccccc2Oc2ccccc21 — 32-fold lower, 1.78 µM
- Cc1ccc(Oc2ccc(NC(=O)Cn3ccsc3=N)cc2)cc1 — within 1.5-fold, 70.8 µM
- CCOC(=O)N1CCC(N2Cc3cccc(C(=O)Nc4ccc(CC)cc4)c3C2=O)CC1 — within 1.5-fold, 44.7 µM
- O=C(NC(Nc1ncc(S(=O)(=O)c2ccc([N+](=O)[O-])cc2)s1)(C(F)(F)F)C(F)(F)F)c1ccc(Cl)cc1 — within 1.5-fold, 44.7 µM
- CN(C)CCC(=O)N1c2ccccc2Sc2ccc(Cl)cc21 — 6.3-fold lower, 8.91 µM
- CCOC(=O)N1CCC(N2CCN(CCC(C)C)C(CCO)C2)CC1 (stereo not drawn) — 4-fold lower, 14.1 µM
- O=C1Nc2ccccc2/C1=N\N=C\C1=C(N2CCOCC2)C(=C\c2ccccc2)/CC1 — within 1.5-fold, 39.8 µM
- CCOc1ccc(NC(=O)c2c(NC(=O)CN3CCN(C)CC3)sc3c2CCC3)cc1 — within 1.5-fold, 44.7 µM
- Cc1nnc(-c2ccccc2)c(=O)n1/N=C/c1c(O)ccc2ccccc12 — within 1.5-fold, 79.4 µM
- CCOCCN1CCN(C2c3ccccc3CSc3ccccc32)CC1 (stereo not drawn) — within 1.5-fold, 50.1 µM
- CCCc1cc(=S)n2c([nH]c3ccccc32)c1C#N — within 1.5-fold, 50.1 µM
- CN1CCC(OC(=O)C2c3ccccc3Oc3ccccc32)CC1 — 79-fold lower, 0.71 µM
- Nc1c2ccccc2nc2ccccc12 — within 1.5-fold, 70.8 µM
- CCN(CC)CCn1c(=N)n(CCOc2ccccc2)c2ccccc21 — 1.6-fold lower, 35.5 µM
- CC1(C)CC(N=c2cc(-c3ccccc3)oc3ccc(Cl)cc23)CC(C)(C)N1 — within 1.5-fold, 50.1 µM
- S=C1N(c2ccccc2)C(c2ccc(Br)cc2)N2CCCN12 (stereo not drawn) — 3.2-fold lower, 17.8 µM
- CC(C)[N+](C)(C)CC#CC(O)(c1ccccc1)c1ccccc1 — 28-fold lower, 2 µM
- CCCN(CC1CC1)C(=O)CCc1nnc(CCc2c[nH]c3ccccc23)o1 — within 1.5-fold, 50.1 µM
- CCC(C)N(CCNC(=O)CC1Oc2ccccc2NC1=O)C1CCCCC1 (stereo not drawn) — 2-fold lower, 28.2 µM
- CC1(C(O)(C#CC[N+]2(C)CCCCC2)c2ccccc2)CCCC1 (stereo not drawn) — 400-fold lower, 0.14 µM
- COc1ccccc1-n1c(-c2ccccc2)c[n+]2c1CCc1ccccc1-2 — 2.8-fold lower, 19.9 µM
- CC[N+](C)(CC)CCC/C(=N/O)C(O)(c1ccccc1)c1ccccc1 — 3.6-fold lower, 15.8 µM
- Cc1cc(N(CCO)CCO)ccc1N=Nc1cc(F)ccc1F — within 1.5-fold, 50.1 µM
- COc1ccccc1C(=O)NCC1CCN(c2ccc(S(=O)(=O)N3CCOCC3)cc2)CC1 — 2.8-fold lower, 19.9 µM
- CCOC(=O)c1sc(=S)n(-c2ccccc2Cl)c1SC — 4.5-fold lower, 12.6 µM
- CC(C)(C)NCc1cc(Br)ccc1OC1CCCC1 — within 1.5-fold, 44.7 µM
- Cc1ccc(-c2cc(-c3ccc(C)cc3)[n+](-c3ccccc3)c(-c3ccc(C)cc3)c2)cc1 — within 1.5-fold, 50.1 µM
- O=C(NCC(=O)N(c1ccc2c(c1)OCCO2)C(C(=O)NC1CCCC1)c1ccco1)c1ccco1 (stereo not drawn) — within 1.5-fold, 44.7 µM
- CCC(CO)(C(=O)OC1C[N+]2(C)CCC1CC2)c1ccccc1 (stereo not drawn) — 36-fold lower, 1.58 µM
- COc1ccc(-n2nc(C(=O)c3cccs3)cc(-c3nc4ccccc4[nH]3)c2=N)cc1 — within 1.5-fold, 50.1 µM
- CCN(CC)CCCNc1nc(-c2ccccc2)nc2ccccc12 — within 1.5-fold, 79.4 µM
- COCCNC(=O)c1cc2c(=O)n3cccc(C)c3nc2n(Cc2ccncc2)c1=N — within 1.5-fold, 39.8 µM
- Nc1ccc(C(=O)OCc2nc3ccccc3s2)cc1 — within 1.5-fold, 79.4 µM
- C[N+]1(C)[C@@H]2CC(OC(=O)[C@H](CO)c3ccccc3)C[C@H]1[C@@H]1O[C@@H]12 (stereo partly drawn) — 1900-fold lower, 0.03 µM
- OC(C#CCCN1CCCCC1)(c1ccccc1)C1CCCCC1 (stereo not drawn) — 16-fold lower, 3.55 µM
- CC[N+](C)(CC)CCC(c1ccccc1)C1CCCCC1 (stereo not drawn) — 13-fold lower, 4.47 µM
- CCOc1ccc(CNc2ccc3c(c2)ncn3C(C)(C)C)cc1 — 4-fold lower, 14.1 µM
- C[n+]1ccccc1/C=C/c1ccc(F)c(F)c1 — within 1.5-fold, 44.7 µM
- CCOC(=O)c1ccc(NC(=S)NCc2ccco2)cc1 — within 1.5-fold, 50.1 µM
- CC(NC(=O)Nc1nnc(C(F)(F)F)s1)(C(F)(F)F)C(F)(F)F — 2.5-fold lower, 22.4 µM
- CN(C)CCN(C(=O)c1ccc2c(c1)OCCO2)c1nc2c(Cl)cccc2s1 — within 1.5-fold, 50.1 µM
- c1ccc(-c2nc(-c3ccccn3)nc(-c3ccccn3)n2)nc1 — within 1.5-fold, 44.7 µM
- CCN(CC)CC#CC(O)(c1ccccc1)c1ccccc1 — 6.3-fold lower, 8.91 µM
- CCCCC(O)(CCN1CCOCC1)c1ccc(Cl)cc1 (stereo not drawn) — within 1.5-fold, 44.7 µM

— PubChem BioAssay AID2696 (Johns Hopkins Ion Channel Center, 2010)
